Test results reported in ChEMBL document CHEMBL1201862, “PubChem BioAssay data set” (2004).
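1) Cells in 96-well plates. 2) Compound, 48 h, 5 concentrations. 3) Linear interpolation between surrounding doses. 4) Unreached endpoint = highest concentration. The concentration for 50% growth inhibition is given as GI50.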 The source made the active and inactive calls. No stated cut-off is given here; in the data, active = GI50 up to about 1.1 µM and inactive = higher.

What was measured:
Assay in all cases: DTP human tumour cell line panel, 48 h
ACHN = system: ACHN
MDA-N = system: MDA-N
SF-539 = system: SF-539
MDA-MB-231 = system: MDA-MB-231
RXF 393 = system: RXF 393
MOLT-4 = system: MOLT-4
SF-268 = system: SF-268
EKVX = system: EKVX
M14 = system: M14
UACC-257 = system: UACC-257
HOP-62 = system: HOP-62
SN12C = system: SN12C
BT-549 = system: BT-549
U-251 = system: U-251
UACC-62 = system: UACC-62
NCI-H460 = system: NCI-H460
RPMI-8226 = system: RPMI-8226
SK-OV-3 = system: SK-OV-3
HOP-92 = system: HOP-92
A498 = system: A498
K562 = system: K562
KM12 = system: KM12
SF-295 = system: SF-295
NCI/ADR-RES = system: NCI/ADR-RES
NCI-H23 = system: NCI-H23
NCI-H226 = system: NCI-H226
DU-145 = system: DU-145
SNB-19 = system: SNB-19
OVCAR-3 = system: OVCAR-3
SK-MEL-5 = system: SK-MEL-5
HT-29 = system: HT-29
SR = system: SR
IGROV-1 = system: IGROV-1
OVCAR-5 = system: OVCAR-5
A549 = system: A549
T47D = system: T47D
HCC 2998 = system: HCC 2998
TK-10 = system: TK-10
SK-MEL-28 = system: SK-MEL-28
SNB-75 = system: SNB-75
HCT-116 = system: HCT-116
COLO 205 = system: COLO 205
CAKI-1 = system: CAKI-1
OVCAR-8 = system: OVCAR-8
786-0 = system: 786-0
SK-MEL-2 = system: SK-MEL-2
PC-3 = system: PC-3
MDA-MB-435 = system: MDA-MB-435
HCT-15 = system: HCT-15
OVCAR-4 = system: OVCAR-4
UO-31 = system: UO-31
SW-620 = system: SW-620
MCF7 = system: MCF7
Hs-578T = system: Hs-578T
NCI-H522 = system: NCI-H522
Malme-3M = system: Malme-3M
HL-60 = system: HL-60
LOX IMVI = system: LOX IMVI
CCRF-CEM = system: CCRF-CEM

## C=C(C(=O)OC)[C@H]1CC/C(C)=C/CC[C@@](C)(O)C=CC[C@@]2(C)O[C@@H]2C1
ACHN
  GI50: 36.3 µM (inactive)
MDA-N
  GI50: 49.4 µM (inactive)
SF-539
  GI50: 21.5 µM (inactive)
MDA-MB-231
  GI50: 56.9 µM (inactive)
RXF 393
  GI50: 32.4 µM (inactive)
MOLT-4
  GI50: 12.7 µM (inactive)
SF-268
  GI50: 19.6 µM (inactive)
EKVX
  GI50: 20.8 µM (inactive)
M14
  GI50: 62.8 µM (inactive)
UACC-257
  GI50: 27.5 µM (inactive)
HOP-62
  GI50: 44.3 µM (inactive)
SN12C
  GI50: 47.4 µM (inactive)
BT-549
  GI50: 76.2 µM (inactive)
U-251
  GI50: 40.4 µM (inactive)
UACC-62
  GI50: 31.9 µM (inactive)
NCI-H460
  GI50: > 100 µM (inactive)
RPMI-8226
  GI50: 16.1 µM (inactive)
SK-OV-3
  GI50: > 100 µM (inactive)
HOP-92
  GI50: 19.1 µM (inactive)
A498
  GI50: 20.7 µM (inactive)
K562
  GI50: > 10 µM (inactive)
KM12
  GI50: 37.6 µM (inactive)
SF-295
  GI50: > 100 µM (inactive)
NCI/ADR-RES
  GI50: 14.3 µM (inactive)
NCI-H23
  GI50: 24.1 µM (inactive)
NCI-H226
  GI50: > 100 µM (inactive)
DU-145
  GI50: 22.9 µM (inactive)
SNB-19
  GI50: > 100 µM (inactive)
OVCAR-3
  GI50: 17.7 µM (inactive)
SK-MEL-5
  GI50: 1.04 µM (active)
HT-29
  GI50: 15.2 µM (inactive)
SR
  GI50: 9.93 µM (inactive)
IGROV-1
  GI50: 46.6 µM (inactive)
OVCAR-5
  GI50: > 100 µM (inactive)
A549
  GI50: 81.3 µM (inactive)
T47D
  GI50: 37.3 µM (inactive)
HCC 2998
  GI50: 42.1 µM (inactive)
TK-10
  GI50: 40.6 µM (inactive)
SK-MEL-28
  GI50: 10.9 µM (inactive)
SNB-75
  GI50: > 100 µM (inactive)
HCT-116
  GI50: 18.8 µM (inactive)
COLO 205
  GI50: 13.6 µM (inactive)
CAKI-1
  GI50: 24.1 µM (inactive)
OVCAR-8
  GI50: 13.9 µM (inactive)
786-0
  GI50: 17.6 µM (inactive)
SK-MEL-2
  GI50: 97.1 µM (inactive)
PC-3
  GI50: 44.4 µM (inactive)
MDA-MB-435
  GI50: 17.3 µM (inactive)
HCT-15
  GI50: 24.2 µM
OVCAR-4
  GI50: 64.6 µM (inactive)
UO-31
  GI50: 21.4 µM (inactive)
SW-620
  GI50: 28.1 µM (inactive)
MCF7
  GI50: 40.8 µM (inactive)

## O=c1[nH]nc(Cc2ccc(Cl)cc2)n1/N=C\c1ccc(/C=N/n2c(Cc3ccc(Cl)cc3)n[nH]c2=O)cc1
ACHN
  GI50: 29.9 µM (inactive)
MDA-N
  GI50: > 100 µM (inactive)
MDA-MB-231
  GI50: 17.2 µM (inactive)
RXF 393
  GI50: 29.7 µM (inactive)
MOLT-4
  GI50: > 100 µM (inactive)
SF-268
  GI50: 37.9 µM (inactive)
EKVX
  GI50: > 100 µM (inactive)
M14
  GI50: > 100 µM (inactive)
UACC-257
  GI50: > 100 µM (inactive)
HOP-62
  GI50: 17 µM (inactive)
SN12C
  GI50: 57.3 µM (inactive)
BT-549
  GI50: > 100 µM (inactive)
U-251
  GI50: 26.6 µM (inactive)
Hs-578T
  GI50: 35.7 µM (inactive)
NCI-H522
  GI50: > 100 µM (inactive)
UACC-62
  GI50: > 100 µM (inactive)
NCI-H460
  GI50: > 100 µM (inactive)
RPMI-8226
  GI50: > 100 µM (inactive)
Malme-3M
  GI50: > 100 µM (inactive)
HOP-92
  GI50: 28.3 µM (inactive)
A498
  GI50: > 100 µM (inactive)
HL-60
  GI50: > 100 µM (inactive)
K562
  GI50: > 100 µM (inactive)
KM12
  GI50: > 100 µM (inactive)
SF-295
  GI50: > 100 µM (inactive)
NCI/ADR-RES
  GI50: 90.2 µM (inactive)
NCI-H23
  GI50: > 100 µM (inactive)
NCI-H226
  GI50: 96.6 µM (inactive)
DU-145
  GI50: > 100 µM (inactive)
SNB-19
  GI50: 50.7 µM (inactive)
OVCAR-3
  GI50: 81.7 µM (inactive)
SK-MEL-5
  GI50: > 100 µM (inactive)
HT-29
  GI50: > 100 µM (inactive)
IGROV-1
  GI50: > 100 µM (inactive)
OVCAR-5
  GI50: > 100 µM (inactive)
A549
  GI50: > 100 µM (inactive)
T47D
  GI50: > 100 µM (inactive)
TK-10
  GI50: 0.855 µM (active)
SK-MEL-28
  GI50: > 100 µM (inactive)
HCT-116
  GI50: > 100 µM (inactive)
LOX IMVI
  GI50: > 100 µM (inactive)
COLO 205
  GI50: > 100 µM (inactive)
CAKI-1
  GI50: 33.3 µM (inactive)
OVCAR-8
  GI50: 54 µM (inactive)
786-0
  GI50: 13.3 µM (inactive)
SK-MEL-2
  GI50: 38.5 µM (inactive)
PC-3
  GI50: > 100 µM (inactive)
MDA-MB-435
  GI50: > 100 µM (inactive)
HCT-15
  GI50: > 100 µM
OVCAR-4
  GI50: 76.4 µM (inactive)
UO-31
  GI50: > 100 µM (inactive)
SW-620
  GI50: > 100 µM (inactive)
CCRF-CEM
  GI50: > 100 µM (inactive)
MCF7
  GI50: > 100 µM (inactive)

## CNc1nc(SC)nc2c1c(N)nn2C
ACHN
  GI50: > 100 µM (inactive)
MDA-N
  GI50: > 100 µM (inactive)
MDA-MB-231
  GI50: > 100 µM (inactive)
RXF 393
  GI50: > 100 µM (inactive)
MOLT-4
  GI50: > 100 µM (inactive)
SF-268
  GI50: > 100 µM (inactive)
M14
  GI50: > 100 µM (inactive)
UACC-257
  GI50: > 100 µM (inactive)
HOP-62
  GI50: > 100 µM (inactive)
SN12C
  GI50: > 100 µM (inactive)
BT-549
  GI50: > 100 µM (inactive)
U-251
  GI50: > 100 µM (inactive)
Hs-578T
  GI50: 95.3 µM (inactive)
NCI-H522
  GI50: > 100 µM (inactive)
UACC-62
  GI50: > 100 µM (inactive)
NCI-H460
  GI50: > 100 µM (inactive)
RPMI-8226
  GI50: > 100 µM (inactive)
SK-OV-3
  GI50: > 100 µM (inactive)
Malme-3M
  GI50: > 100 µM (inactive)
HOP-92
  GI50: > 100 µM (inactive)
A498
  GI50: 99.5 µM (inactive)
K562
  GI50: > 100 µM (inactive)
KM12
  GI50: > 100 µM (inactive)
SF-295
  GI50: > 100 µM (inactive)
NCI/ADR-RES
  GI50: > 100 µM (inactive)
NCI-H23
  GI50: > 100 µM (inactive)
NCI-H226
  GI50: > 100 µM (inactive)
DU-145
  GI50: > 100 µM (inactive)
SNB-19
  GI50: > 100 µM (inactive)
OVCAR-3
  GI50: > 100 µM (inactive)
SK-MEL-5
  GI50: > 100 µM (inactive)
HT-29
  GI50: > 100 µM (inactive)
IGROV-1
  GI50: 78 µM (inactive)
OVCAR-5
  GI50: > 100 µM (inactive)
A549
  GI50: > 100 µM (inactive)
T47D
  GI50: > 100 µM (inactive)
HCC 2998
  GI50: > 100 µM (inactive)
TK-10
  GI50: > 100 µM (inactive)
SK-MEL-28
  GI50: > 100 µM (inactive)
SNB-75
  GI50: 95.7 µM (inactive)
HCT-116
  GI50: > 100 µM (inactive)
LOX IMVI
  GI50: > 100 µM (inactive)
COLO 205
  GI50: > 100 µM (inactive)
CAKI-1
  GI50: > 100 µM (inactive)
OVCAR-8
  GI50: > 100 µM (inactive)
786-0
  GI50: > 100 µM (inactive)
SK-MEL-2
  GI50: > 100 µM (inactive)
PC-3
  GI50: > 100 µM (inactive)
MDA-MB-435
  GI50: > 100 µM (inactive)
HCT-15
  GI50: > 100 µM
OVCAR-4
  GI50: > 100 µM (inactive)
UO-31
  GI50: > 100 µM (inactive)
SW-620
  GI50: > 100 µM (inactive)
CCRF-CEM
  GI50: > 100 µM (inactive)
